Laboratory results taken from patent publication US11998551B2, “Treatment of mitochondrial diseases” (FUNDACIÓ HOSPITAL UNIVERSITARI VALL D'HEBRON-INSTITUT DE …, priority 2015, dated 2024).

System: quiescent fibroblasts from healthy controls
Assay: mtDNA copy number (quantitative PCR) after EtBr-forced depletion in quiescent fibroblasts from healthy controls
Assay type: cell-based, human
Conditions: control cells, 14 days exposure to 5 ng/ml EtBr
Method: Primary cultured fibroblasts were obtained from skin biopsies of patients 1-3 and 4 healthy donors. All subjects gave informed consent in accordance with our Institutional Review Boards and the Declaration of Helsinki.
Cells were seeded in 6-well plates of 9.5 cm^2 in Dulbecco's modified Eagle's medium (DMEM) with 4.5 g/L glucose, supplemented with 2 mM L-glutamine, 100 U/ml penicillin and streptomycin, and 10% dialyzed Fetal Bovine Serum (FBS) (Invitrogen) in a humidified incubator at 37° C. and 5% CO2. After tight confluence was reached, FBS was reduced to 0.1% to induce quiescence and simultaneous treatment with 5 ng/ml of EtBr (ethidium bromide, Merck) was initiated (day 0, t0). Cell media was replaced with the same treatment every 2-3 days for two weeks. At day 14 (t14) EtBr was withdrawn from cell media and the treatment of a set of all cells was initiated with 200 μM of all four deoxynucleosides (dNs): dAdo (deoxyadenosine, Sigma), dCtd (deoxycytidine, Sigma), dGuo (deoxyguanosine, Sigma), dThd (deoxythymidine, Sigma) and 5 μM EHNA (Sigma). A set of cells was left untreated and all parameters were monitored in parallel. Cell media was replaced with the same treatment every 2-3 days for 12 additional days. At days 16 or 17 media were collected and stored at −20° C. until further use. […]
mtDNA copy number was assessed by quantitative PCR as previously described. […]

CC[n+]1c(-c2ccccc2)c2cc(N)ccc2c2ccc(N)cc21 [EtBr, ethidium bromide]
averaged percentage of mtDNA residual levels ± SE: 39.68±6.6%
